From patent publication US20050070544A1, “1,2,5,10-tetrahydropyridazino{4,5-b}quinoline-1,10-diones and their use for the treatment of pain” (AstraZeneca AB, priority 2000, published 2005)
Where a name gives a salt, the structure may show the parent alone.

Legend:
[1] = target: T1, NMDA receptor glycine site (Rattus norvegicus, UniProt P35439); assay: Test A: Inhibition of binding of [3H]-MDL105,519
T1 construct: fresh brain tissue including cerebral cortex and hippocampus from male Sprague Dawley rats was homogenized; tissue Analytical Biological Services Inc; host or cells: rat brain membranes (cerebral cortex and hippocampus, male Sprague Dawley rats)
Protocol: Test A: Inhibition of Binding of [^3H]-MDL105,519:
Binding of compounds to the NMDA receptor glycine site may be assessed by measuring the ability of test compounds to inhibit the binding of tritiated MDL105,519 to brain membranes bearing the receptor.
Rat Brain Membranes: The rat brain membranes used in the experiments were obtained from Analytical Biological Services Inc., and were prepared substantially in accordance with the method of B. M. Baron et al., J. Pharmacol. Exp. Ther. 250, 162 (1989). Briefly, fresh brain tissue including cerebral cortex and hippocampus from male Sprague Dawley rats was homogenized in 0.32 M sucrose and centrifuged at low speed to separate cellular membranes from other cellular components. The membranes were then washed 3 times using deionized water, followed by treatment with 0.04% Triton X-100. Finally, membranes were washed six times in 50 mM Tris citrate buffer, pH 7.4, and frozen at −80° C. until use.
[^3]MDL105,519 (72 Ci/mmol) was purchased from Amersham. Cold MDL105,519 was purchased from Sigma/RBI. Binding assays were performed substantially in accordance with the protocol of B. M. Baron et al., J. Pharmacol. Exp. Ther. 279, 62 (1996), as follows. On the day of the experiment, brain membranes were thawed at room temperature and suspended in 50 mM tris acetate buffer, pH 7.4 (“TAB”). Seventy-five micro grams per milliliter protein (by using the BioRad dye) were used for competition binding. The experiments were carried out using 96-well plates. Membranes were incubated with […] of compounds of various concentrations and 1.2 nM [^3H]MDL105,519 for 30 minutes at room temperature in a total volume of 250 μL. Non specific binding was determined by using 100 μM of unlabeled MDL105,519. The unlabeled MDL105,519 and compounds were dissolved as 12.5 mM stock solutions in DMSO. Final DMSO concentration in each well was kept below 1%, which concentration was found not to alter the binding results. After incubation, unbound [^3H]MDL105,519 was removed by filtration onto GF/B Unifilter plates using a Packard harvester. Filters were washed four times with ice cold TAB (total of 1.2 mL buffer). The plates were dried overnight at room temperature and bound radioactivity was measured on a Packard TopCount after the addition of 45 μL per well of the MICROSCINT O.
Human Brain Membranes: Human brain membranes were obtained from Analytical Biological Services Inc., and assays were performed as described for rat membranes.
Data analysis: Data was analyzed using a Microsoft Excel spreadsheet and GraphPad Prizm software and potency of compounds is expressed as the Ki (nM).

SMILES	melting point	Ki [1]
O=c1c2ccc(Cl)cc2[nH]c2c(O)nn(CC#Cc3ccncc3)c(=O)c12 (as salt: methanesulfonate) [Ex. 1, 7-Chloro-4-hydroxy-2-(3-(4-pyridyl)prop-2-ynyl)1,2,5,10-tetrahydropyridazino[4,5-b]quinoline-1,10-dione 1,3 methanesulfonate]	238 to 241 °C	–
O=c1c2ccc(Cl)cc2[nH]c2c(O)nn(CC#Cc3ccccc3Cl)c(=O)c12 [Ex. 4, 7-Chloro-4-hydroxy-2-[3-(2-chlorophenyl)prop-2-ynyl]-1,2,5,10-tetrahydropyridazino[4.5-b]quinoline-1.10-dione]	255 to 257 °C	113 nM
O=c1c2ccc(Cl)cc2[nH]c2c(O)nn(CC#Cc3ccc(Cl)nc3)c(=O)c12 [Ex. 6, 7-Chloro-2-[3-(6-chloro(3-pyridyl))prop-2-ynyl]-4-hydroxy-2,5-dihydropyridazino[4,5-b]quinoline-1,10-dione]	–	106 nM

The remaining lines, values ahead:

melting point	Ki [1]	SMILES
–	67.6 nM	O=c1c2ccc(Cl)cc2[nH]c2c(O)nn(CC#Cc3ccncc3)c(=O)c12 [Ex. 1, 7-Chloro-4-hydroxy-2-(3-(4-pyridyl)prop-2-ynyl)1,2,5,10-tetrahydropyridazino[4,5-b]quinoline-1,10-dione 1,3 methanesulfonate]
220 to 222 °C	7.86 nM	O=c1c2ccc(Cl)cc2[nH]c2c(O)nn(CC#Cc3cccc(Cl)c3)c(=O)c12 [Ex. 2, 7-Chloro-4-hydroxy-2-[3-(3-chlorophenyl)prop-2-ynyl]-1,2,5,10-tetrahydropyridazino[4,5-b]quinoline-1,10-dione]
251 to 252 °C	86.6 nM	O=c1c2ccc(Cl)cc2[nH]c2c(O)nn(CC#Cc3ccc(Cl)cc3)c(=O)c12 [Ex. 3, 7-Chloro-4-hydroxy-2-[3-(4-chlorophenyl)prop-2-ynyl]-1,2,5,10-tetrahydropyridazino[4,5-b]quinoline-1,10-dione]
227 to 229 °C	14 nM	CS(=O)(=O)O.O=c1c2ccc(Cl)cc2[nH]c2c(O)nn(CC#Cc3cccnc3)c(=O)c12 [Ex. 5, 7-Chloro-4-hydroxy-2-(3-(3-pyridyl)prop-2-ynyl)-1,2,5,10-tetrahydropyridazino[4,5-b]quinoline-1,10-dione methanesulfonate]
